Here are results for 27 compounds from patent US6251897A, “6-phenyltetrahydro-1,3-oxazin-2-one derivative and pharmaceutical composition containing the same” (Nikken Chemicals Co., LTD, priority 1996, dated 2001).

A word on the ED50: it is the midpoint of the dose-response relation. In general, IC50 refers to the concentration at which inhibition is half-maximal.

For assay [1], the system named is antigen-induced bronchospasm in guinea pig. Description: Inhibitory effect on antigen-induced bronchospasm (Konzett-Roessler, ovalbumin-sensitized). It is filed as in vivo, guinea pig (Hartley male). The conditions noted are these: Cavia porcellus; intravenous, 10 minutes before antigen (0.2 mg/kg OA i.v.); read-out: Action for suppressing antigen-induced bronchospasms ED50. How it is done: A Hartley male guinea pig was sensitized by intramuscular administration of […] Ovalbumin (OA) on first day and fourth day, and used after 24th day. A trachial canula was introduced in the guinea pig anesthetized with pentobarbital and artificial ventilation was performed 25 to 29 days after the first sensitization. The overflow of the ventilation was measured by the Konzett-Roessler method while 0.2 mg/kg OA were administered intravenously. The test compound was dissolved in polyethylene glycol 400 and intravenously administered 10 minutes before administration of the antigens.

Another assay relates to Type IV PDE. The assay can be described thus: PDE inhibitory activity, type IV isozyme (3H-cAMP hydrolysis). It is filed as biochemical. The conditions noted are these: partially purified from rat neutrophils, 30° C., 30 minutes. As for the experimental part:
Type I, III, IV, and V PDE isozymes were prepared to study the PDE inhibitory activities and selectivities with the compound of the invention [Trends Pharmacol. Sci., 12, 19-27 (1992)]. Type I PDE was purchased from Sigma Corp. Type III, IV, and V PDE isozymes were partially purified from rats platelets (Type III and V) or neutrophils (Type IV). Each enzyme source was homogenized in a buffer (pH 6.5) containing 20 mM bisTris, 2 mM EDTA (ethylenediamine tetraacetate), 0.1 mM PMSF (phenylmethylsulfonyl fluoride), 5 mM 2-mercaptoethanol, 0.001 mM pepstatin, and 0.01 mM leupeptin and was centrifuged at 30,000×G for 30 minutes to obtain a supernatant, which was applied to an ion exchange column (Q-sepharose First Flow, Pharmacia Corp.) and was eluted with 0 to 1M sodium acetate. Partially purified isozymes were identified by observing the effects of conventional inhibitors.
Each PDE isozyme and the test compound dissolved in DMSO (dimethyl sulfoxide) were added to 50 mM Tris-HCl buffer containing 5 mM magnesium chloride. ^3 H-cAMP (for type III and IV PDE) or ^3 H-cGMP (for type I and V PDE) were added as substrates and were reacted at 30° C. for 30 minutes. The reaction was terminated by placing the test tube in boiling water of 100° C. for 5 minutes. The nucleotides formed by PDE were broken down by 5'-nucleotidase to ^3 H-adenosine or ^3 H-guanosine. The unreacted substrate and reaction product were separated through an ion-exchange column (QAE sephadex, Pharmacia Corp.) The eluted ^3 H-nucleoside was measured for its radioactivity by a liquid scintillation counter. The inhibiting activities of the compound of the present invention are shown by the IC50 value (M). Further, the inhibitory activities of the test samples against Type I, III, and V are 1/10 or less than that against type IV.

The test system of another assay is rat neutrophils. The assay can be described thus: Inhibition of super oxide anion release from rat neutrophils (A23187-stimulated chemiluminescence). It is filed as cell-based, rat (Wister). The conditions noted are these: Neutrophil, stimulated with 0.3 μM calcium ionophore A23187, read-out: Inhibitory action of super oxide anion release from rat neutrophils IC50. How it is done: The release of super oxide anions was measured so as to study the inhibitory effects of the compound on inflammatory leukocytes, that is, neutrophils.
Blood sample was obtained from Wister rats anesthetized with ether. It was superposed on a blood cell separation solution (Polymorphoprep 1.113, made by Naicomet Co. (phonetic)) and the neutrophils were separated by centrifugation. The neutrophils were resuspended in a Hank's balanced salt solution at a concentration of 0.5×10^4 cell/ml. 0.1 mM of Lusigenin and the test substance dissolved in DMSO were added to 2 ml of the cell-suspension. The chemiluminescence generated by stimulation of 0.3 μM calcium ionophore A23187 was measured by a chemiluminescence reader so as to evaluate the release of super oxide anions.

Consider `COc1ccc(C2(C)CCN(C)C(=O)O2)cc1OC1CCCC1` (stereo not drawn) [Compound No. 21, 6-(3-cyclopentyloxy-4-methoxyphenyl)-3,6-dimethyl-3,4,5,6-tetrahydro-2H-1,3-oxazin-2-one], for which the ED50 in assay [1] stood at 0.29 mg/kg. Besides, the IC50 in the assay with Type IV PDE is 0.66 µM.
On to `COc1ccc(C2CCN(C)C(=O)O2)cc1OC` (stereo not drawn) [Compound No. 8, 6-(3,4-dimethoxyphenyl)-3-methyl-3,4,5,6-tetrahydro-2H-1,3-oxazin-2-one], for which the IC50 was 4.1 µM in the assay on rat neutrophils and 19 µM with Type IV PDE.
Regarding `COc1ccc(C2CCNC(=O)O2)cc1OCC1CCC1` (stereo not drawn) [Compound No. 61, 6-(3-cyclobutylmethyloxy-4-methoxyphenyl)-3,4,5,6-tetrahydro-2H-1,3-oxazin-2-one], the median effective dose (ED50) in assay [1] is 1.84 mg/kg. In the assay with Type IV PDE, this compound returned an IC50 of 3.2 µM.
Taken in the same sequence, the figures for `COc1ccc(C2CCNC(=O)O2)cc1OCC1CCCC1` (stereo not drawn) [Compound No. 76, 6-(3-cyclopentylmethyloxy-4-methoxyphenyl)-3,4,5,6-tetrahydro-2H-1,3-oxazin-2-one] were 0.27 mg/kg and 2.9 µM.
For `COc1ccc(C2CCNC(=O)O2)cc1OCC1CC1` (stereo not drawn) [Compound No. 4, 6-(3-cyclopropylmethyloxy-4-methoxyphenyl)-3,4,5,6-tetrahydro-2H-1,3-oxazin-2-one], the ED50 in assay [1] came to 0.23 mg/kg. The compound further came in with a 50% inhibitory concentration (IC50) in the assay on Type IV PDE of 3.2 µM.
`COc1ccc(C2CCNC(=O)O2)cc1OCC(C)C` (stereo not drawn) [Compound No. 65, 6-[4-methoxy-3-(2-methylpropoxy)phenyl]-3,4,5,6-tetrahydro-2H-1,3-oxazin-2-one]: in assay [1], the ED50 was 0.22 mg/kg. Further, the IC50 in the assay on Type IV PDE was 2.2 µM.
The corresponding values for `COc1ccc(C2CCN(Cc3ccncc3)C(=O)O2)cc1OC1CCCC1` (stereo not drawn) [Compound No. 14, 6-(3-cyclopentyloxy-4-methoxyphenyl)-3-(4-pyridylmethyl)-3,4,5,6-tetrahydro-2H-1,3-oxazin-2-one] are 2.4 mg/kg and 6.1 µM.
Consider `COc1ccc(C2(C)CCN(C)C(=O)O2)cc1OCC1CC1` (stereo not drawn) [Compound No. 51, 6-(3-cyclopropylmethyloxy-4-methoxyphenyl)-3,6-dimethyl-3,4,5,6-tetrahydro-2H-1,3-oxazin-2-one], for which, in assay [1], the 50% effective dose (ED50) stood at 2.23 mg/kg. In the assay on Type IV PDE, this compound showed an IC50 of 1.9 µM.
The corresponding values for `COc1ccc(C2CCN(Cc3cccnc3)C(=O)O2)cc1OC1CCCC1` (stereo not drawn) [Compound No. 20, 6-(3-cyclopentyloxy-4-methoxyphenyl)-3-(3-pyridylmethyl)-3,4,5,6-tetrahydro-2H-1,3-oxazin-2-one] are 8.5 mg/kg and 3.5 µM.
Regarding `COc1ccc(C2CCNC(=O)O2)cc1OCCc1ccccc1` (stereo not drawn) [Compound No. 23, 6-(4-methoxy-3-phenethyloxyphenyl)-3,4,5,6-tetrahydro-2H-1,3-oxazin-2-one], the median effective dose (ED50) in assay [1] was 13.6 mg/kg. Also, in the assay with Type IV PDE, the IC50 worked out at 1.5 µM.
With `COc1ccc(C2(C)CCNC(=O)O2)cc1OCC(C)C` (stereo not drawn) [Compound No. 81, 6-[4-methoxy-3-(2-methylpropoxy)phenyl]-6-methyl-3,4,5,6-tetrahydro-2H-1,3-oxazin-2-one], the ED50 in assay [1] was determined as 0.028 mg/kg. In addition, in the assay on Type IV PDE, the IC50 turned out to be 1.3 µM.
The corresponding values for `COc1ccc(C2(C)CCN(C)C(=O)O2)cc1OCC(C)C` (stereo not drawn) [Compound No. 82, 3,6-dimethyl-6-[4-methoxy-3-(2-methylpropoxy)phenyl]-3,4,5,6-tetrahydro-2H-1,3-oxazin-2-one] are 0.045 mg/kg and 1.9 µM.
Consider `COc1ccc(C2CCNC(=O)O2)cc1OC1Cc2ccccc2C1` (stereo not drawn) [Compound No. 24, 6-[3-(2-indanyloxy)-4-methoxyphenyl]-3,4,5,6-tetrahydro-2H-1,3-oxazin-2-one], for which, in assay [1], the ED50 came out at 1.6 mg/kg. The compound also came in with an IC50 in the assay on Type IV PDE of 0.13 µM.
The corresponding values for `COc1ccc(C2(C)CCNC(=O)O2)cc1OCCc1ccccc1` (stereo not drawn) [Compound No. 46, 6-(4-methoxy-3-phenethyloxyphenyl)-6-methyl-3,4,5,6-tetrahydro-2H-1,3-oxazin-2-one] are 11.4 mg/kg and 0.49 µM.
Taken in the same sequence, the figures for `CCN1CCC(c2ccc(OC)c(OC3Cc4ccccc4C3)c2)OC1=O` (stereo not drawn) [Compound No. 71, 3-ethyl-6-[3-(2-indanyloxy)-4-methoxyphenyl]-3,4,5,6-tetrahydro-2H-1,3-oxazin-2-one] were 2.67 mg/kg and 0.31 µM.
On to `COc1ccc(C2CCN(C)C(=O)O2)cc1OC1Cc2ccccc2C1` (stereo not drawn) [Compound No. 25, 6-[3-(2-indanyloxy)-4-methoxyphenyl]-3-methyl-3,4,5,6-tetrahydro-2H-1,3-oxazin-2-one], for which the ED50 in assay [1] amounted to 0.061 mg/kg. Besides, in the assay on Type IV PDE, inhibition was half-maximal at 0.19 µM (IC50).
The corresponding values for `CCC1(c2ccc(OC)c(OC3CCCC3)c2)CCNC(=O)O1` (stereo not drawn) [Compound No. 26, 6-(3-cyclopentyloxy-4-methoxyphenyl)-6-ethyl-3,4,5,6-tetrahydro-2H-1,3-oxazin-2-one] are 2.4 mg/kg and 3.5 µM.
`COc1ccc(C2CCN(C)C(=O)O2)cc1OCC1(c2ccccc2)CC1` (stereo not drawn) [Compound No. 57, 6-[4-methoxy-3-[(1-phenylcyclopropyl)methyloxy]phenyl]-3-methyl-3,4,5,6-tetrahydro-2H-1,3-oxazin-2-one]: the ED50 in assay [1] came to 15.9 mg/kg. In the assay on Type IV PDE, the IC50 amounted to 1.3 µM.
The corresponding values for `COc1ccc(C2(C)CCN(C)C(=O)O2)cc1OC1Cc2ccccc2C1` (stereo not drawn) [Compound No. 43, 3,6-dimethyl-6-[3-(2-indanyloxy)-4-methoxyphenyl]-3,4,5,6-tetrahydro-2H-1,3-oxazin-2-one] are 0.29 mg/kg and 0.066 µM.
Taken in the same sequence, the figures for `COc1ccc(C2CCN(C)C(=O)O2)cc1OCC(C)C` (stereo not drawn) [Compound No. 66, 6-[4-methoxy-3-(2-methylpropoxy)phenyl]-3-methyl-3,4,5,6-tetrahydro-2H-1,3-oxazin-2-one] were 0.051 mg/kg and 3.8 µM.
The corresponding values for `COc1ccc(C2(C)CCNC(=O)O2)cc1OC1Cc2ccccc2C1` (stereo not drawn) [Compound No. 40, 6-[3-(2-indanyloxy)-4-methoxyphenyl]-6-methyl-3,4,5,6-tetrahydro-2H-1,3-oxazin-2-one] are 0.47 mg/kg and 0.05 µM.
As for `COc1ccc(C2CCNC(=O)O2)cc1OCC1(c2ccccc2)CC1` (stereo not drawn) [Compound No. 56, 6-[4-methoxy-3-[(1-phenylcyclopropyl)methyloxy]phenyl]-3,4,5,6-tetrahydro-2H-1,3-oxazin-2-one], the ED50 in assay [1] came to 1.72 mg/kg. Also, in the assay on Type IV PDE, it took 0.94 µM to reach half-maximal inhibition (IC50).
Consider `CCN1CCC(c2ccc(OC)c(OC3CCCC3)c2)OC1=O` (stereo not drawn) [Compound No. 28, 6-(3-cyclopentyloxy-4-methoxyphenyl)-3-ethyl-3,4,5,6-tetrahydro-2H-1,3-oxazin-2-one], for which the median effective dose (ED50) in assay [1] came to 7.4 mg/kg. For the same compound, half-maximal inhibition in the assay on Type IV PDE (IC50) required 1.7 µM.
Taken in the same sequence, the figures for `COc1ccc(C2CCN(C)C(=O)O2)cc1OCC1CC1` (stereo not drawn) [Compound No. 49, 6-(3-cyclopropylmethyloxy-4-methoxyphenyl)-3-methyl-3,4 5,6-tetrahydro-2H-1,3-oxazin-2-one] were 3.1 mg/kg and 2 µM.
Taken in the same sequence, the figures for `COc1ccc(C2(C)CCNC(=O)O2)cc1OC1CCCC1` (stereo not drawn) [Compound No. 6, 6-(3-cyclopentyloxy-4-methoxyphenyl)-6-methyl-3,4,5,6-tetrahydro-2H-1,3-oxazin-2-one] were 0.3 mg/kg and 1.1 µM.
The corresponding values for `COc1ccc(C2CCN(Cc3ccccn3)C(=O)O2)cc1OC1CCCC1` (stereo not drawn) [Compound No. 16] are 2.1 mg/kg and 5.5 µM.
With `COc1ccc(C2(C)CCNC(=O)O2)cc1OCC1CC1` (stereo not drawn) [Compound No. 50, 6-(3-cyclopropylmethyloxy-4-methoxyphenyl)-6-methyl-3,4,5,6-tetrahydro-2H-1,3-oxazin-2-one], the ED50 in assay [1] is 0.3 mg/kg. The IC50 in the assay on Type IV PDE came out at 1.1 µM.
